Results from patent US5656603A (Loyola University of Chicago, priority 1995, dated 1997).

Experiments:
Format in all cases: biochemical
[1] = biological target: dipeptidyl-peptidase I-like activity; experiment: Specificity of apstatin: dipeptidyl-peptidase I-like activity; conditions: detergent extract of bovine lung; Gly-Phe-β-NA, pH 6.5, HPLC-2
Method: (§1) Specificity of Apstatin--Apstatin was assayed for its ability to inhibit several other peptidases. […] Unless otherwise indicated, the source of each enzyme activity was a detergent extract of bovine lung prepared as described in (12-13). Activities were determined by a modification of the fluorescent assay described above (indicated by "FLUO") or by HPLC separation and quantitation of reaction products using the method described in (12) (method "HPLC-1") or the method described below (method "HPLC-2"). […]

microsomal dipeptidase = biological target: T1, microsomal dipeptidase (Rattus norvegicus, UniProt P31430); experiment: Specificity of apstatin: microsomal (membrane) dipeptidase; conditions: purified, rat lung; Gly-D-Phe, pH 8.0, HPLC-1
T1 construct: Membrane dipeptidase was purified from rat lung microsomes; from tissue; host or cells: rat lung microsomes
T1 sequence (P31430 17-410): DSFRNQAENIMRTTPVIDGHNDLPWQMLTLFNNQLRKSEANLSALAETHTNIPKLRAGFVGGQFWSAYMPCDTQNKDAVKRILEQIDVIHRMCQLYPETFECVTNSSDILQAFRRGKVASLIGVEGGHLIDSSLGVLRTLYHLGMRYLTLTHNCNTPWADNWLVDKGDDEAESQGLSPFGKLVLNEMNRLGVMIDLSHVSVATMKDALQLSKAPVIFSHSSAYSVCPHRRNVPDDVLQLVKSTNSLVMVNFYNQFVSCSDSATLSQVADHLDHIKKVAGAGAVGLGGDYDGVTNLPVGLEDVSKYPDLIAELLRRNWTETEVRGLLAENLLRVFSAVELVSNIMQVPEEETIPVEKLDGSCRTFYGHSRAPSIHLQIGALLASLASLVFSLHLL
Source text: (§2) Enzymes--Membrane-bound aminopeptidase P was purified to homogeneity from bovine lung (14) and from rat lung. Partially purified membrane-bound aminopeptidase P from human lung was obtained by treatment of lung microsomes with phosphatidylinositol-specific phospholipase C (B. thuringiensis) (ICN, Costa Mesa, Calif.) followed by centrifugation as described previously (14). Membrane dipeptidase was purified from rat lung microsomes (manuscript in preparation). Recombinant E. coli aminopeptidase P (22) and purified lamb kidney prolyl oligopeptidase (23) were generally supplied by Dr. Tadashi Yoshimoto (Nagasaki University). Purified porcine kidney prolidase and purified porcine kidney aminopeptidase M was obtained from Sigma (St. Louis, Mo.).
as §1

endopeptidase 24.11 = biological target: T2, endopeptidase 24.11 (Bos taurus, UniProt E1BPL8); experiment: Specificity of apstatin: endopeptidase 24.11; conditions: detergent extract of bovine lung; Suc-Ala-Ala-Phe-7-amido-4-methyl-coumarin, pH 6.8, HPLC-1
T2 construct: Unless otherwise indicated, the source of each enzyme activity was a detergent extract of bovine lung; from tissue; host or cells: detergent extract of bovine lung
T2 sequence (E1BPL8 1-750): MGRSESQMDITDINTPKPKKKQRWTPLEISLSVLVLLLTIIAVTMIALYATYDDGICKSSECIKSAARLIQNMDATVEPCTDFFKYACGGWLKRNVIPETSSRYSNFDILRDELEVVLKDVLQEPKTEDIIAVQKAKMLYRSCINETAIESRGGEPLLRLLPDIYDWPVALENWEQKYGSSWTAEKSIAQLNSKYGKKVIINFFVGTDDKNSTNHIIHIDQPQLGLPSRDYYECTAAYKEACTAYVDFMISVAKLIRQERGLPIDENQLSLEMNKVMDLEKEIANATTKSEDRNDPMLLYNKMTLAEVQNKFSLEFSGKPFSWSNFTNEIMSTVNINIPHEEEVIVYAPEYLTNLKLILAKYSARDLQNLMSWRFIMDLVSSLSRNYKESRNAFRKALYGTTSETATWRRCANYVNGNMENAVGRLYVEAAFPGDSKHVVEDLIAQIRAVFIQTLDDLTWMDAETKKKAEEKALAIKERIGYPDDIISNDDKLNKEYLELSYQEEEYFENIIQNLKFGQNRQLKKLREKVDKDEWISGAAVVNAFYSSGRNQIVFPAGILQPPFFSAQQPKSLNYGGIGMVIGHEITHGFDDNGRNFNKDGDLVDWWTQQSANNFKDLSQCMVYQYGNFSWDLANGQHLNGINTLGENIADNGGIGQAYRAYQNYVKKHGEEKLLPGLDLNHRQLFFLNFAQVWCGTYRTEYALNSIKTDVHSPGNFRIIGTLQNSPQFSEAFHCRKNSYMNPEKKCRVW
Method: as §1

prolidase = biological target: T3, prolidase (Sus scrofa, UniProt A0A5G2QQV1); experiment: Specificity of apstatin: prolidase; conditions: purified, porcine kidney; Arg-Pro, pH 8.0, HPLC-2
T3 construct: Purified porcine kidney prolidase and purified porcine kidney aminopeptidase M was obtained from Sigma; purchased Sigma (St. Louis, Mo.); host or cells: porcine kidney
T3 sequence (A0A5G2QQV1 1-463): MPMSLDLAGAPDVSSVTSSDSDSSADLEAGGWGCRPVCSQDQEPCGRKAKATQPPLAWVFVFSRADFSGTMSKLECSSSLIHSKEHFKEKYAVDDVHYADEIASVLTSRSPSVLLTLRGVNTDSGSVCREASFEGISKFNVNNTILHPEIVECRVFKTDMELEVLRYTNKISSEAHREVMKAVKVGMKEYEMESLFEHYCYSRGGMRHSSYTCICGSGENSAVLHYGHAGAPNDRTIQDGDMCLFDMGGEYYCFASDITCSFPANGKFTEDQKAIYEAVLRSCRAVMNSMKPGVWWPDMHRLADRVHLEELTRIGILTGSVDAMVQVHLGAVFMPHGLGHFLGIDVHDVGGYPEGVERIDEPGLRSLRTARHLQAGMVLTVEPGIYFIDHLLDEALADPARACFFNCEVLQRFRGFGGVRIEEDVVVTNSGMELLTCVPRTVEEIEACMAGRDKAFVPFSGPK
Source text: as §2, §1

C[C@H](NC(=O)[C@@H]1CCCN1C(=O)[C@@H]1CCCN1C(=O)[C@@H](O)[C@H](N)Cc1ccccc1)C(N)=O [apstatin, N-[(2S, 3R)-3-amino-2-hydroxy-4-phenylbutanoyl]-L-prolyl-L-prolyl-Lalaninamide]
IC50 [1]: > 800 µM | IC50 (microsomal dipeptidase): > 800 µM | IC50 (endopeptidase 24.11): > 800 µM | IC50 (prolidase): 4.9 µM
